Results from patent US20220363686A1 (AiCuris GmbH & Co. KG, priority 2018, published 2022).
Read-outs that look alike come from different tables or passages of the source.

Key:
HBV = assay: Determination of HBV DNA from the supernatants of HepAD38 cells (anti-HBV activity); format: cell-based, hepatitis B virus; details: Hepatitis B virus, HePAD38, 144 h, HBV DNA in HepAD38 supernatant, day 6, qPCR, read-out: Cell Activity
Summary of the method: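 EC50 derived by non-linear regression of relative HBV DNA copy numbers, measured by qPCR (plasmid standards) in day-6 filtered supernatants. Before this, HepAD38 cells were exposed to serial half-log compound dilutions without tetracycline, releasing viral expression; cultures kept at 37 °C, 5% CO2.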

[1] = Cell viability assay (AlamarBlue); details: human, HepAD38 cells
Experimental: Using the AlamarBlue viability assay cytotoxicity was evaluated in HepAD38 cells in the presence of 0.3 μg/ml tetracycline, which blocks the expression of the HBV genome. Assay condition and plate layout were in analogy to the anti-HBV assay, however other controls were used. On each assay plate six wells containing untreated HepAD38 cells were used as the 100% viability control, and six wells filled with assay medium only were used as 0% viability control. In addition, a geometric concentration series of cycloheximide starting at 60 μM final assay concentration was used as positive control in each experiment. After six days incubation period Alamar Blue Presto cell viability reagent (ThermoFisher, Dreieich) was added in 1/11 dilution to each well of the assay plate. After an incubation for 30 to 45 min at 37° C. the fluorescence signal, which is proportional to the number of living cells, was read using a Tecan Spectrafluor Plus plate reader with an excitation filter 550 nm and emission filter 595 nm, respectively. Data were normalized into percentages of the untreated control (100% viability) and assay medium (0% viability) before CC50 values were calculated using non-linear regression and the GraphPad Prism 6.0 (GraphPad Software, La Jolla, USA). Mean EC50 and CC50 values were used to calculate the selectivity index (SI=CC50/EC50) for each test compound.

[2] = biological target: HBV core protein (C-terminal truncated core protein containing 149 amino acids of the N-terminal assembly domain) (UniProt P03146); assay: Biochemical capsid assembly assay (fluorescence quenching); set-up: rows headed: Assembly Activity; other: BODIPY-FL labelled core protein, assembly started with NaCl, read after 6 min; details: read-out: Assembly Activity; BODIPY-FL labelled core protein, assembly started with NaCl, read after 6 min
Summary of the method: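 N-terminal assembly domain (residues 1–149) plus C-terminal Cys150, E. coli-expressed, BODIPY-FL-maleimide labelled, used at 1.0–2.0 μM in 50 mM HEPES pH 7.5 with 0.5% DMSO. Assembly started with NaCl ([…]); fluorescence quenching (ex 477/em 525 nm) read after 6 min. 8-point compound series; EC50 by non-linear regression.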

Chain of HBV core protein (C-terminal truncated core protein containing 149 amino acids of the N-terminal assembly domain) (P03146 whole entry, the tested form may be a part): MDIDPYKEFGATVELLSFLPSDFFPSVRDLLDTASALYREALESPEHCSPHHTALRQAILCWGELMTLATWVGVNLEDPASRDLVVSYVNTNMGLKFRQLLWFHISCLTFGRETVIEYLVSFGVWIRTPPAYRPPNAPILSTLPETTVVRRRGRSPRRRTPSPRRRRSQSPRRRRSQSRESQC

Compound	EC50 (HBV) [µM]	CC50 at 6 days [1] [µM]	IC50 [2] [µM]	EC50 (HBV; printed as number instead of class symbol) [µM]
O=C(c1cc2ccccc2[nH]1)N1CCn2ncc(S(=O)(=O)N3CCOCC3)c2C1 [Example 38, 2-[3-(morpholine-4-sulfonyl)-4H,5H,6H,7H-pyrazolo[1,5-a]pyrazine-5-carbonyl]-1H-indole]	< 1	> 10	< 5	–
O=C(c1cc2ccccc2[nH]1)N1CCn2ncc(S(=O)(=O)N3CCCC3)c2C1 [Example 39, 2-[3-(pyrrolidine-1-sulfonyl)-4H,5H,6H,7H-pyrazolo[1,5-a]pyrazine-5-carbonyl]-1H-indole]	< 1	> 10	< 5	–
CN(C)S(=O)(=O)c1cnn2c1CN(C(=O)c1cc3ccccc3[nH]1)CC2 [Example 40, 5-(1H-indole-2-carbonyl)-N,N-dimethyl-4H,5H,6H,7H-pyrazolo[1,5-a]pyrazine-3-sulfonamide]	< 1	> 10	< 5	–
CNS(=O)(=O)c1cnn2c1CN(C(=O)c1cc3ccccc3[nH]1)CC2 [Example 41, 5-(1H-indole-2-carbonyl)-N-methyl-4H,5H,6H,7H-pyrazolo[1,5-a]pyrazine-3-sulfonamide]	< 1	> 10	< 5	–
O=C(c1cc2ccccc2[nH]1)N1CCn2ncc(C(=O)N3CC4C(C3)C4(F)F)c2C1 (stereo not drawn) [Example 42, 2-(3-{6,6-difluoro-3-azabicyclo[3.1.0]hexane-3-carbonyl}-4H,5H,6H,7H-pyrazolo[1,5-a]pyrazine-5-carbonyl)-1H-indole]	< 1	> 10	< 5	–
O=C(c1cc2ccccc2[nH]1)N1CCn2ncc(C(=O)N3CC4CC4C3)c2C1 (stereo not drawn) [Example 43, 2-(3-{3-azabicyclo[3.1.0]hexane-3-carbonyl}-4H,5H,6H,7H-pyrazolo[1,5-a]pyrazine-5-carbonyl)-1H-indole]	< 100	> 10	< 5	–
CN(Cc1ccccn1)C(=O)c1cnn2c1CN(C(=O)c1cc3ccccc3[nH]1)CC2 [Example 44, 5-(1H-indole-2-carbonyl)-N-methyl-N-[(pyridin-2-yl)methyl]-4H,5H,6H,7H-pyrazolo[1,5-a]pyrazine-3-carboxamide]	< 1	> 10	< 5	–
O=C(c1cc2ccccc2[nH]1)N1CCn2ncc(C3(O)CCC3)c2C1 [Example 45, 1-[5-(1H-indole-2-carbonyl)-4H,5H,6H,7H-pyrazolo[1,5-a]pyrazin-3-yl]cyclobutan-1-ol]	1 to 10	> 10	5 to 10	–
CN(C(=O)c1cnn2c1CN(C(=O)c1cc3ccccc3[nH]1)CC2)C1(c2ccncc2)CC1 [Example 46, 5-(1H-indole-2-carbonyl)-N-methyl-N-[1-(pyridin-4-yl)cyclopropyl]-4H,5H,6H,7H-pyrazolo[1,5-a]pyrazine-3-carboxamide]	< 1	> 10	< 5	–
CN(C(=O)c1cnn2c1CN(C(=O)c1cc3ccccc3[nH]1)CC2)C1(c2ncccn2)CC1 [Example 47, 5-(1H-indole-2-carbonyl)-N-methyl-N-[1-(pyrimidin-2-yl)cyclopropyl]-4H,5H,6H,7H-pyrazolo[1,5-a]pyrazine-3-carboxamide]	< 1	> 10	< 5	–
O=C(c1cc2ccccc2[nH]1)N1CCn2ncc(C(=O)N3CCC4CC43)c2C1 (stereo not drawn) [Example 48, 2-(3-{2-azabicyclo[3.1.0]hexane-2-carbonyl}-4H,5H,6H,7H-pyrazolo[1,5-a]pyrazine-5-carbonyl)-1H-indole]	1 to 10	> 10	< 5	–
O=C(c1cc2ccccc2[nH]1)N1CCn2ncc(N3CC4(CC4)CC3=O)c2C1 [Example 49, 5-[5-(1H-indole-2-carbonyl)-4H,5H,6H,7H-pyrazolo[1,5-a]pyrazin-3-yl]-5-azaspiro[2.4]heptan-6-one]	< 1	> 10	< 5	–
COCC1(NC(=O)c2cnn3c2CN(C(=O)c2cc4ccccc4[nH]2)CC3)CC1 [Example 50, 5-(1H-indole-2-carbonyl)-N-[1-(methoxymethyl)cyclopropyl]-4H,5H,6H,7H-pyrazolo[1,5-a]pyrazine-3-carboxamide]	< 1	> 10	< 5	–
O=C(c1cc2ccccc2[nH]1)N1CCn2ncc(C3(O)CC(c4ccccc4)C3)c2C1 (stereo not drawn) [Example 51, 1-[5-(1H-indole-2-carbonyl)-4H,5H,6H,7H-pyrazolo[1,5-a]pyrazin-3-yl]-3-phenylcyclobutan-1-ol]	1 to 10	> 10	5 to 10	–
CN(CCO)C(=O)c1cnn2c1CN(C(=O)c1cc3c(Cl)cccc3[nH]1)CC2 [Example 52, 5-(4-chloro-1H-indole-2-carbonyl)-N-(2-hydroxyethyl)-N-methyl-4H,5H,6H,7H-pyrazolo[1,5-a]pyrazine-3-carboxamide]	< 1	> 10	< 5	–
CN(C(=O)c1cnn2c1CN(C(=O)c1cc3ccccc3[nH]1)CC2)C1(CNCC(F)F)CC1 [Example 53, N-(1-{[(2,2-difluoroethyl)amino]methyl}cyclopropyl)-5-(1H-indole-2-carbonyl)-N-methyl-4H,5H,6H,7H-pyrazolo[1,5-a]pyrazine-3-carboxamide]	< 1	> 10	< 5	–
O=C(NCCOC(F)F)c1cnn2c1CN(C(=O)c1cc3ccccc3[nH]1)CC2 [Example 54, N-[2-(difluoromethoxy)ethyl]-5-(1H-indole-2-carbonyl)-4H,5H,6H,7H-pyrazolo[1,5-a]pyrazine-3-carboxamide]	1 to 10	> 10	< 5	–
CN(Cc1ccnn1C)C(=O)c1cnn2c1CN(C(=O)c1cc3ccccc3[nH]1)CC2 [Example 55, 5-(1H-indole-2-carbonyl)-N-methyl-N-[(1-methyl-1H-pyrazol-5-yl)methyl]-4H,5H,6H,7H-pyrazolo[1,5-a]pyrazine-3-carboxamide]	< 1	> 10	< 5	–
O=C(c1cc2ccccc2[nH]1)N1CCn2ncc(C(=O)N3CCC(F)(F)C34CC4)c2C1 [Example 56, 2-(3-{7,7-difluoro-4-azaspiro[2.4]heptane-4-carbonyl}-4H,5H,6H,7H-pyrazolo[1,5-a]pyrazine-5-carbonyl)-1H-indole]	< 1	> 10	< 5	–
CN(C(=O)c1cnn2c1CN(C(=O)c1cc3ccccc3[nH]1)CC2)C1(c2cocn2)CC1 [Example 57, 5-(1H-indole-2-carbonyl)-N-methyl-N-[1-(1,3-oxazol-4-yl)cyclopropyl]-4H,5H,6H,7H-pyrazolo[1,5-a]pyrazine-3-carboxamide]	< 1	> 10	< 5	–
O=C(c1cc2ccccc2[nH]1)N1CCn2ncc(C(=O)N3CCC(O)CC34CC4)c2C1 (stereo not drawn) [Example 58, 4-[5-(1H-indole-2-carbonyl)-4H,5H,6H,7H-pyrazolo[1,5-a]pyrazine-3-carbonyl]-4-azaspiro[2.5]octan-7-ol]	< 1	> 10	< 5	–
O=C(c1cc2ccccc2[nH]1)N1CCn2ncc(C(=O)N3CCC(OC(F)F)CC34CC4)c2C1 (stereo not drawn) [Example 59, 2-{3-[7-(difluoromethoxy)-4-azaspiro[2.5]octane-4-carbonyl]-4H,5H,6H,7H-pyrazolo[1,5-a]pyrazine-5-carbonyl}-1H-indole]	< 1	> 10	< 5	–
O=C(c1cc2ccccc2[nH]1)N1CCn2ncc(C(=O)N(C3CC3)C3CC3)c2C1 [Example 60, N,N-dicyclopropyl-5-(1H-indole-2-carbonyl)-4H,5H,6H,7H-pyrazolo[1,5-a]pyrazine-3-carboxamide]	< 1	> 10	< 5	–
O=C(NC1(c2ccccn2)CC1)c1cnn2c1CN(C(=O)c1cc3ccccc3[nH]1)CC2 [Example 61, 5-(1H-indole-2-carbonyl)-N-[1-(pyridin-2-yl)cyclopropyl]-4H,5H,6H,7H-pyrazolo[1,5-a]pyrazine-3-carboxamide]	< 1	> 10	< 5	–
CN(CCOC(F)F)C(=O)c1cnn2c1CN(C(=O)c1cc3ccccc3[nH]1)CC2 [Example 62, N-[2-(difluoromethoxy)ethyl]-5-(1H-indole-2-carbonyl)-N-methyl-4H,5H,6H,7H-pyrazolo[1,5-a]pyrazine-3-carboxamide]	–	> 10	< 5	> 10
CN(Cc1ccccc1)C(=O)c1cnn2c1CN(C(=O)c1cc3ccccc3[nH]1)CC2 [Example 63, N-benzyl-5-(1H-indole-2-carbonyl)-N-methyl-4H,5H,6H,7H-pyrazolo[1,5-a]pyrazine-3-carboxamide]	< 1	> 10	< 5	–
CN(C(=O)c1cnn2c1CN(C(=O)c1cc3ccccc3[nH]1)CC2)C1(COCCO)CC1 [Example 64, N-{1-[(2-hydroxyethoxy)methyl]cyclopropyl}-5-(1H-indole-2-carbonyl)-N-methyl-4H,5H,6H,7H-pyrazolo[1,5-a]pyrazine-3-carboxamide]	< 1	> 10	< 5	–
